Assay results as given in US20040219112A1, “Method of whitening teeth, tooth whitening composition and tooth whitening set” (priority 2001, published 2004).

Tests used:
[1] = Whitening of extracted human tooth enclosed in PP non-woven sheet coated with gel of 50% whitening compound, L*a*b* (CIE) whiteness; design: key to Effect (3): whiteness (Δ|L|+Δ|b|) of the tooth / Effect (4): prolonged effect, whiteness (Δ|L|+Δ|b|) of the tooth: whiteness = Δ|L|+Δ|b| (CIE L*a*b*), change before vs after treatment; conditions: gel of 50% compound; for Effect (4): prolonged effect, whiteness (Δ|L|+Δ|b|) of the tooth / Effect (3): whiteness (Δ|L|+Δ|b|) of the tooth: 0.5% jellan gum, 49.5% water; for Effect (4): prolonged effect, whiteness (Δ|L|+Δ|b|) of the tooth: measured after immersion in water (10 ml, 37° C.) for 1 hour; for Effect (3): whiteness (Δ|L|+Δ|b|) of the tooth: measured immediately after 1 hour at 37° C.; for Result (prolonged effect rating): rating of prolonged effect after 1 hour in water
Experimental: An experiment was conducted as follows with an extracted human tooth which had previously been examined for L*a*b* values (CIE). The tooth was enclosed in a sheet of non-woven fabric of PP coated with a gel composed of 50% of the whitening compound specified below, 0.5% of jellan gum, and 49.5% of water, and the resulting object was allowed to stand at 37° C. for 1 hour in a closed glass bottle. The tooth was examined again for L*a*b* values (CIE). The ΔL and Δb values measured before and after treatment were used to calculate the whiteness (Δ|L|+Δ|b|) of the tooth, which is a measure of the effect (3).
The tooth which had been processed as mentioned above was again allowed to stand at 37° C. for 1 hour in a closed glass bottle containing 10 ml of water at 37° C. Then, the tooth was examined again for L*a*b* values (CIE). The ΔL and Δb values measured before and after treatment were used to calculate the whiteness (Δ|L|+Δ|b|) of the tooth, which is a measure of the prolonged effect (4).

[2] = Whitening of extracted human tooth enclosed in absorbent cotton impregnated with liquid compound (100%), L*a*b* (CIE) whiteness; conditions: compound conc. 100%; for Effect (2): prolonged effect, whiteness (Δ|L|+Δ|b|) of the tooth: measured after immersion in water (10 ml, 37° C.) for 1 hour; for Effect (1): whiteness (Δ|L|+Δ|b|) of the tooth: measured immediately after immersion in the compound for 1 hour at 37° C.; for Result (prolonged effect rating): rating of prolonged effect after 1 hour in water
Experimental: An experiment was conducted as follows with an extracted human tooth which had previously been examined for L*a*b* values (CIE). The tooth was enclosed in absorbent cotton impregnated with a liquid compound (in 100% concentration) shown below, and the resulting object was allowed to stand at 37° C. for 1 hour in a closed glass bottle. The tooth was examined again for L*a*b* values (CIE). The ΔL and Δb values measured before and after treatment were used to calculate the whiteness (Δ|L|+Δ|b|) of the tooth, which is a measure of the effect (1).
The tooth which had been processed as mentioned above was again allowed to stand at 37° C. for 1 hour in a closed glass bottle containing 10 ml of water at 37° C. Then, the tooth was examined again for L*a*b* values (CIE). The ΔL and Δb values measured before and after treatment were used to calculate the whiteness (Δ|L|+Δ|b|) of the tooth, which is a measure of the prolonged effect (2).

Compound	Effect (4): prolonged effect, whiteness (Δ|L|+Δ|b|) of the tooth [1]	Effect (3): whiteness (Δ|L|+Δ|b|) of the tooth [1]	Result (prolonged effect rating) [1]	Effect (2): prolonged effect, whiteness (Δ|L|+Δ|b|) of the tooth [2]	Effect (1): whiteness (Δ|L|+Δ|b|) of the tooth [2]	Result (prolonged effect rating) [2]
CCO [Ethanol]	1.9	1.5	⊚ (⊚ denotes a significant prolonged effect with a value larger than 1)	3.0	12.8	⊚ (⊚ denotes a significant prolonged effect with a value larger than 1)
CC(C)O [Isopropyl alcohol]	0.5	1.1	◯ (◯ denotes a prolonged effect with a value larger than 0.5)	8.3	15.8	⊚ (⊚ denotes a significant prolonged effect with a value larger than 1)
Polyethylene glycol #400 [PEG #400]	0.6	0.7	◯ (◯ denotes a prolonged effect with a value larger than 0.5)	1.5	8.1	⊚ (⊚ denotes a significant prolonged effect with a value larger than 1)
Polyethylene glycol #200 [PEG #200]	0.9	0.6	◯ (◯ denotes a prolonged effect with a value larger than 0.5)	4.8	12.5	⊚ (⊚ denotes a significant prolonged effect with a value larger than 1)
Polyethylene glycol #600 [PEG #600]	0.8	0.7	◯ (◯ denotes a prolonged effect with a value larger than 0.5)	0.6	12.0	◯ (◯ denotes a prolonged effect with a value larger than 0.5)
PEG #300	0.8	1.8	◯ (◯ denotes a prolonged effect with a value larger than 0.5)	3.7	10.7	⊚ (⊚ denotes a significant prolonged effect with a value larger than 1)
OCCO [Ethylene glycol]	0.7	1.6	◯ (◯ denotes a prolonged effect with a value larger than 0.5)	2.6	9.3	⊚ (⊚ denotes a significant prolonged effect with a value larger than 1)
CC(O)CO (stereo not drawn) [Propylene glycol]	1.0	1.0	⊚ (⊚ denotes a significant prolonged effect with a value larger than 1)	2.8	8.4	⊚ (⊚ denotes a significant prolonged effect with a value larger than 1)
CC(O)CCO (stereo not drawn) [1,3-butylene glycol]	0.5	0.9	◯ (◯ denotes a prolonged effect with a value larger than 0.5)	5.6	11.3	⊚ (⊚ denotes a significant prolonged effect with a value larger than 1)
OCCOCCO [Diethylene glycol]	1.1	1.3	⊚ (⊚ denotes a significant prolonged effect with a value larger than 1)	2.6	14.4	⊚ (⊚ denotes a significant prolonged effect with a value larger than 1)
